Reference: patent publication US8026069B2, “Process for identification of compounds for modulating the activity of sodium/calcium exchange transporter” (Sanofi-Aventis Deutschland GmbH, priority 2004, dated 2011)

Biological target: T1, NCX1-containing HEK membrane fragments (human cardiac sodium calcium exchanger NCX-1) (Homo sapiens, UniProt P32418)
T1 construct: expressed in transfected cells; host or cells: HEK-293 (Flp-In T-Rex-293-NCX1, DSM ACC2670), doxycycline-induced; membrane fragments
Test: cell free electrophysiological sensor chip (SurfE2R) NCX assay, current on Ca2+ concentration jump
Format: biochemical
Conditions: 5 mM
Protocol: 10-30 μl, for example, of NCX-containing membrane fragments were applied and circulated on the sensor chip and preferably incubated for at least 12 hours at 4° C. In preferred cases of experiments the NCX protein is a human NCX1 protein. The capacitance of the protein-loaded sensor chip was preferably around 100 nF cm^−2 and the conductance G1s preferably around 10 nS cm^−2. The principal of the assay is to test the electrical activity of NCX protein in the absence of the inhibitor and afterwards in the presence of the inhibitor. For this reason the NCX-sensor chip is rinsed with a sequence of solutions, which activate NCX. In general, there is the possibility to test whether an inhibitor is reversible. In this case after the inhibitor application the solutions are changed back to inhibitor-free conditions. Before the experiment the solution reservoirs of the chip are filled with the following preferred solutions: washing buffer: 40 mM KCl, 100 mM NaCl, 4 mM MgCl2, 30 mM HEPES/NMG pH 7.4; non-activating solution: 140 mM KCl, 4 mM MgCl2, 30 mM HEPES/NMG pH 7.4; activating solution: 140 mM KCl, 4 mM MgCl2, 30 mM HEPES/NMG pH 7.4, 0.5 mM CaCl2. […]
For the determination of its activity, the NCX protein was treated consecutively with a washing, non-activating and activating solution and the electrical current was measured when changing from […] to activating treatment. […]

Q: [Ni+2] [Ni^2+] was tested. Which “effect on NCX current in control experiments” value did it give?
A: diminished
